Measurements as given in PubChem BioAssay (NCI).
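How tested: cells in 96-well plates exposed to compound for 48 hours at five concentrations. Here, GI50 denotes the concentration required for 50% inhibition of growth. TGI: concentration producing complete growth inhibition.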

Test system: MDA-MB-468 breast
Test: NCI-60 cell line screen, 48 h

SMILES | GI50 [µM] | TGI [µM]
O=C1CN2CCC1C/C2=C\c1ccnc2c(Cl)cccc12 (stereo unspecified) | 14.8 | 57.9
Cc1cc(Nc2nc(N3CCOCC3)nc3ccccc23)n[nH]1 | 4.36 | 38.2
COc1ccc(C(=O)c2ccc(OC)cc2OC)cc1 | 1.21 | 3.89
CN1CCN(Cc2ccc(NC(=O)c3[nH]ncc3Nc3ccnc4ccsc34)cc2)CC1 | 2.12 | 5.54
C=C1C(=O)O[C@H]2[C@H]1CC/C(COC(=O)NCCc1c[nH]c3ccccc13)=C\CC[C@@]1(C)O[C@@H]21 | 1.38 | 4.32
Cc1c(N)nc([C@H](CC(N)=O)NC[C@H](N)C(N)=O)nc1C(=O)N[C@H](C(=O)N[C@H](C)[C@@H](O)[C@H](C)C(=O)N[C@H](C(=O)NCCc1nc(-c2nc(C(=O)NCCC[S+](C)C)cs2)cs1)[C@@H](C)O)C(OC1OC(CO)C(O)C(O)C1OC1OC(CO)C(O)C(OC(N)=O)C1O)c1cnc[nH]1 (stereo partly specified) | 2.48 | 15.3
CS(=O)(=O)Nc1cc(-c2ccc3ncc(C#N)c(NCc4ccccc4)c3c2)cnc1Cl | 0.0819 | 0.896
O=C(Nc1nc(-c2ccc(Cl)cc2)cs1)c1ccc(O)c(O)c1 | 3.77 | 25.5
CCOC(=O)c1ccc2[nH]c(Cc3[nH]c4ccc(C(=O)OCC)cc4c3C)c(C)c2c1 | 5.59 | 28.9
O=C(CSc1nc2sc3c(c2c(=O)n1-c1ccccc1)CCCCC3)N/N=C/c1ccc(F)cc1 | 2.35 | 8.02
O=C(/C=C/c1ccc2c(c1)OCO2)c1ccccc1 | 13.9 | 28
C[C@]12CC[C@H](O)C[C@@H]1CC[C@@H]1[C@@H]2CC[C@@]2(C)[C@H]1CC[C@@H]2[C@](C)(O)CCc1ccc(F)cc1 | 2.44 | 28.2
O=C1CC(N2C(=O)/C(=C/C(Cl)=C\c3ccc([N+](=O)[O-])cc3)SC2=S)C(=O)N1c1ccc(Cl)cc1 (stereo unspecified) | 1.33 | 3.1
